From US20240083883A1, “RAD51 BINDING INHIBITORS AND METHODS OF USE THEREOF” (Sarissa Inc., priority 2020, published 2024)
“And” between values parts separate entries of the source, which are not always exact repeats. Equal values may be shown once. Read-outs that look alike come from different tables or passages of the source.

How the values were obtained:
[1] = Solubility comparison of RAD51 inhibitors; type: physicochemical; conditions: for appearance of the 1 mM solution in H2O/DMSO: 1 mM in H2O/DMSO
Procedure: A comparison of the solubility of selected compounds of the present invention with known RAD51 inhibitors was carried out.
Aqueous samples of the mesylate salt were readily prepared and were suitable for testing in inhibition assays. Exemplary solutions were prepared as follows:
soluble in water−1.0 mg JKYN-1-mes+75.9 μl of water=20 mM (13.2 mg/ml)
Exemplary solutions were prepared as follows:
IBR2 was soluble in DMSO to at least 166.8 mM (66.7 mg/ml). Exemplary solutions were prepared as follows:
IBR120 is soluble in DMSO to at least 20 mM (7.77 mg/ml).

[2] = tested on: most tested cancer cell lines; conditions: cited from earlier work
[3] = background section; cited from earlier work
[4] = tested on: pancreatic cancer cell line (PANC-1); assay: Proliferation assay, PANC-1; type: cell-based; conditions: for inhibition of proliferation compared with IBR120: range of concentrations
Procedure: (§1) Proliferation assays: Cells are maintained in minimum essential medium alpha plus 10% fetal bovine serum and penicillin (50 units/mL)/streptomycin (50 mg/L) (growth medium). Cultures are incubated in a humidified atmosphere of 5% CO2 at 37° C. Rapidly proliferating cells are used to establish cultures of experimental cells, which are allowed to adhere overnight in 96-well plates or 25-cm^2 flasks prior to manipulation.
(§2) Exposure to chemotherapy drugs and combinations thereof: Cells are grown in 96-well plates and treated with simultaneous exposure to a single drug or a combination of two drugs at the concentrations indicated. The relative cell density is determined after 4 days by viability staining (alamarBlue© or neutral red).
(§3) The relative density of cells treated with two agents is normalized to the density observed for a respectively treated “second agent” control. The concentration of drug that inhibits proliferation by 50% (IC50 value) is interpolated from plotted data. The change in the IC50 value of a chemotherapy drug caused by the presence of the second agent is determined as a percent of the IC50 of the first drug alone. Enhancement of cytotoxicity is indicated by a decrease in the IC50 value. This methodology, previously reported (Ferguson et al., 2009; Blake et al., 2017; Ferguson et al., 2018), provides a quantitative, concentration-dependent representation of the magnitude of the drug interaction.

[5] = tested on: NSCLC cell line H1650; assay: Proliferation assay, NSCLC cell line H1650; type: cell-based
Procedure: as §1, §2, §3

[6] = tested on: MDA-MB-231; assay: Proliferation assay, MDA-MB-231; type: cell-based; conditions: Homo sapiens; MDA-MB-231, single agent
Procedure: as §1, §2
(§4) The relative density of cells treated with two agents is normalized to the density observed for a respectively treated “second agent” control. The concentration of drug that inhibits proliferation by 50% (IC50 value) is interpolated from plotted data. The change in the IC50 value of a chemotherapy drug caused by the presence of the second agent is determined as a percent of the IC50 of the first drug alone. […] This methodology, previously reported (Ferguson et al., 2009; Blake et al., 2017; Ferguson et al., 2018), provides a quantitative, concentration-dependent representation of the magnitude of the drug interaction.

[7] = tested on: NSCLC cell line A549b; assay: Proliferation assay, A549b; type: cell-based; conditions: for inhibition of proliferation compared with IBR120: range of concentrations
Procedure: as §1, §2, §3

[8] = tested on: normal cells; assay: Toxicity on normal cells (summary of the normal cell line surrogates); type: cell-based, human; conditions: normal cell surrogates HEK293, CCD841, HK-2, read-out: toxicity (IC50) on normal cells, approximate
Procedure: as §1, §2, §3
FIG. 23 graphically depicts the toxicity effect on normal (not fully tumorigenic) cell line surrogates resulting from exposure to JKYN-1 (base). The cell line surrogates include: HEK293 (human embryonic kidney transformed with adenovirus 5 DNA); CCD841 (human embryonic colonic epithelial, untransformed); and HK-2 (human kidney proximal tubule, papilloma).

[9] = tested on: DU145 prostate carcinoma cell line; assay: Proliferation assay, DU145; type: cell-based
Procedure: as §1, §2, §4

[10] = tested on: MCF-7 breast carcinoma cell line; assay: Proliferation assay, MCF-7; type: cell-based
Procedure: as §1, §2, §3

[11] = tested on: HEK293; assay: Proliferation assay, normal cell line surrogate HEK293; type: cell-based, human; conditions: HEK293, single agent, 4 days
Procedure: as §1, §2
(§5) The relative density of cells treated with two agents is normalized to the density observed for a respectively treated “second agent” control. The concentration of drug that inhibits proliferation by 50% (IC50 value) is interpolated from plotted data. The change in the IC50 value of a chemotherapy drug caused by the presence of the second agent is determined as a percent of the IC50 of the first drug alone. […] This methodology, previously reported (Ferguson et al., 2009; Blake et al., 2017; Ferguson et al., 2018), provides a quantitative, concentration-dependent representation of the magnitude of the drug interaction. […]

[12] = tested on: CCD841; assay: Proliferation assay, normal cell line surrogate CCD841; type: cell-based, human; conditions: CCD841, single agent, 4 days
Procedure: as §1, §2, §5

[13] = tested on: N87 stomach carcinoma cell line; assay: Proliferation assay, N87; type: cell-based
Procedure: as §1, §2, §3

[14] = tested on: HK-2; assay: Proliferation assay, normal cell line surrogate HK-2; type: cell-based, human; conditions: HK-2, single agent, 4 days
Procedure: as §1, §2, §5

[15] = tested on: prostate carcinoma cell line LNCaP; assay: Proliferation assay, LNCaP; type: cell-based
Procedure: as §1, §2, §3

SMILES: O=S(=O)(Cc1ccccc1)N1C=Cc2ccccc2C1c1c[nH]c2ccccc12 (centres unmarked) [IBR2]
- appearance of the 1 mM solution in H2O/DMSO [1]: slightly cloudy
- solubility in DMSO [1]: at least 166.8 mM and ≥ 66.7 mg/ml
- upper limit of solubility in H2O/DMSO ([1]; H2O/DMSO): ~1000 µM
- appearance of the 1 mM H2O/DMSO solution diluted 1:10 or more in water [1]: clear
- solubility in water ([1]; water): insoluble in water
- IC50 [2]: 12 to 20 µM
- aqueous solubility (background statement) [3]: low aqueous solubility

SMILES: O=S(=O)(Cc1ccccc1)N1Cc2ccccc2[C@@H]1c1c[nH]c2ccccc12 [IBR120]
- appearance of the 1 mM solution in H2O/DMSO [1]: a little bit cloudy
- solution of 25 mg/ml in 100% DMSO ([1]; 25 mg/ml, 100% DMSO): dissolves well
- solubility in DMSO [1]: at least 20 mM and ≥ 7.77 mg/ml
- appearance of the 1 mM H2O/DMSO solution diluted 1:10 or more in water [1]: clear
- solubility in water ([1]; water): insoluble in water
- aqueous solubility (background statement) [3]: low aqueous solubility

SMILES: CN1CCN(c2ccc(-c3ccc4c(c3)[C@H](c3c[nH]c5ccccc35)N(S(=O)(=O)Cc3ccccc3)C4)cc2)CC1.CS(=O)(=O)O [JKYN-1-mesylate, (R)-3-(2-(Benzylsulfonyl)-6-(4-(4-methylpiperazin-1-yl)phenyl)isoindolin-1-yl)-1H-indole, Mesylate Salt]
- IC50 ([4]; Homo sapiens, PANC-1, single agent): 4.69 ± 1.14 µM
- combination effect with afatinib ([4]; PANC-1, combination with afatinib): positive (synergistic) effect
- inhibition of proliferation compared with IBR120 ([4]; PANC-1, single agent): superior activity
- solubility in water [1]: highly soluble in water
- solubility ([1]; water, thermodynamic from solid): ≥ 13200 µg/mL and ≥ 20000 µM
- decrease of the IC50 value of osimertinib ([5]; H1650, combination with osimertinib): up to 75%
- combination effect with osimertinib ([5]; H1650, range of concentrations): synergistic effect
- IC50 ([5]; H1650, single agent, Mesylate Salt, read-out: IC50): ≥ 4 µM
- IC50 ([5]; Homo sapiens, NCI-H1650, H1650, 6 μM osimertinib, read-out: IC50 of JKYN-1-mesylate in the presence of osimertinib): ~2 µM
- IC50 ([5]; Homo sapiens, NCI-H1650, H1650, single agent, read-out: IC50): 3.95 µM
- IC50 [6]: 5.66 ± 0.36 µM
- effect on inhibition by regorafenib ([7]; combination with regorafenib): potentiates regorafenib
- IC50 ([7]; single agent): 3.96 ± 0.44 µM
- inhibition of proliferation compared with IBR120 ([7]; single agent): superior activity
- IC50 ([8]; Homo sapiens): 3 to 4 µM
- IC50 ([8]; Mesylate Salt): 3 to 4 µM
- effect on inhibition by enzalutamide ([9]; DU145, combination with enzalutamide): enhanced enzalutamide toxicity
- combination effect with enzalutamide ([9]; DU145, range of concentrations): synergistic effect
- IC50 ([10]; Homo sapiens, MCF7, MCF-7, about 5 μM (or more) 4-OH-tamoxifen, read-out: IC50 of JKYN-1-mesylate in the presence of 4-OH-tamoxifen): ≤ 1.5 µM
- IC50 ([10]; Homo sapiens, MCF7, MCF-7, single agent, read-out: IC50): 4.36 ± 0.42 µM
- decrease of the IC50 value of 4-OH-tamoxifen ([10]; MCF-7, combination with 4-OH-tamoxifen): up to 80%
- combination effect with 4-OH-tamoxifen ([10]; MCF-7, range of concentrations): synergistic effect
- IC50 ([10]; MCF-7, single agent, Mesylate Salt, read-out: IC50): 4 to 5 µM
- IC50 ([11]; Mesylate Salt): 2.89 µM
- IC50 ([12]; Mesylate Salt): 3.68 µM
- combination effect with regorafenib ([13]; N87): synergistic effect
- decrease of the IC50 value of regorafenib ([13]; N87, combination with regorafenib): up to 54%
- IC50 ([13]; N87, single agent): 2.21 ± 1.13 µM
- IC50 ([14]; Mesylate Salt): 3.42 µM
- IC50 ([15]; Homo sapiens, single agent): 3.36 ± 0.37 µM
- decrease of the IC50 value of enzalutamide ([15]; combination with enzalutamide): up to 30%
- combination effect with enzalutamide ([15]; range of concentrations): synergistic effect

SMILES: CN1CCN(c2ccc(-c3ccc4c(c3)[C@H](c3c[nH]c5ccccc35)N(S(=O)(=O)Cc3ccccc3)C4)cc2)CC1 [Compound 1, (R)-3-(2-(Benzylsulfonyl)-6-(4-(4-methylpiperazin-1-yl)phenyl)isoindolin-1-yl)-1H-indole]
- inhibition of proliferation compared with IBR120 ([4]; PANC-1, single agent): superior activity
- solubility in water at 10 mg/ml [1]: not very soluble in water
- appearance of the 1 mM solution in H2O/DMSO [1]: less cloudy than 1 mM IBR120
- inhibition of proliferation compared with IBR120 ([7]; single agent): superior activity
- IC50 ([8]; listed as JKYN-1): 4 to 6 µM
- IC50 ([11]; Homo sapiens, HEK293, 96 h): 4.16 µM
- IC50 ([12]; Homo sapiens, CCD-841, 96 h): 5.71 µM
- IC50 ([14]; Homo sapiens, HK-2, 96 h): 3.92 µM
